Laboratory results as given in patent US11149055B2, “Crystal form of lanosterol prodrug compound and application thereof” (GUANGZHOU OCUSUN OPHTHALMIC BIOTECHNOLOGY CO., LTD., priority 2018, dated 2021).
Where two headings read alike, the source gives them in different places.

Legend:
[1] = system: lens glutathione peroxidase (GSH-PX) activity; assay: Lens glutathione peroxidase (GSH-PX) activity assay, ultraviolet-induced cataract model; type: in vivo, New Zealand rabbit; conditions: after 42 days of administration
Description: (§1) Adult New Zealand rabbits 2.0-2.5 kg, normal grade, male and female, a total of 25.
(§2) The experimental rabbits were randomly divided into 5 groups with 5 rabbits per group.
(§3) 2) Model control group (MC): 313 nm UV irradiation for 24 hours to make model, then drug-free blank eye drops were dripped into the right eye 3 times every day for 42 days.
(§4) 3) Positive control group (PC): 313 nm UV irradiation for 24 hours to make model, then Kary Uni eye drops (Santen Pharmaceutical Co., Ltd in Japan) were dripped into the right eye 3 times every day for 42 days.
(§5) 4) Lanosterol eye drops treatment group (LT): 313 nm UV irradiation for 24 hours to make model, then lanosterol eye drops were dripped into the right eye 3 times every day for 42 days.
(§6) 5) Lanosterol prodrug 026 eye drops treatment group (026): 313 nm UV irradiation for 24 hours to make model, then the lanosterol prodrug 026 eye drops were dripped into the right eye 3 times every day for 42 days.
(§7) 3) Glutathione peroxidase (GSH-PX) activity assay: GSH-PX activity of the isolated rabbit lens in each group was determined by the method provided in the specification of GSH-PX activity detection kit (Nanjing Jiancheng Bioengineering Institute). The experimental data were analyzed by One-Way ANOVA with SPSS statistical software. The LSD method was used to compare the groups, and the statistical difference level was p<0.05.

[2] = Penetration of ocular drugs in the body and conversion to lanosterol (aqueous humor concentration after eye drops); type: in vivo, New Zealand white rabbit; conditions: for AUC: New Zealand white, rabbit; for Penetration into the aqueous humor: from the cornea or through other routes
Description: In this study, New Zealand white rabbits (body weight was more than 2 kg, aged more than 12 weeks) were used as experimental animals. Each compound was studied in two New Zealand white rabbits. Each rabbit was instilled with 50 μL of eye drops in each eye, three eyes were used to collect aqueous humor samples and one eye was used as a backup. The formula of the eye drops was 1.2% hydroxypropyl methylcellulose (E5 size), 20.5% poloxamer (P407 size), 1.6% poloxamer (P188 size), the concentration of the compound was 5 mM, and the eye drops were homogeneous suspensions. After the eye drops were dripped into the rabbit's eyes, the anterior aqueous humor was collected 0.5, 2, 4 and 6 hours after administration. The volume of each sample was not more than 50 μL. Each animal was given mild anesthesia before collecting samples. Three samples were collected at each time point. The collected aqueous humor samples were stored in dry ice immediately after collection or stored in a refrigerator at −80±10° C. After the sample collection, the animals were euthanized. The concentration of the compound in each sample was determined using a triple quadrupole mass spectrometer (API 4000). Tables 3 and 4 show the DMPK determination conditions in vivo; Tables 5 and 6 show the drug concentration in the aqueous humor after compound lanosterol (parent drug) and the prodrug compound were dripped into eyes ([…]).

[3] = system: sodium selenite-induced neonatal New Zealand rabbit cataract model; assay: Slit lamp observation, sodium selenite-induced cataract model; type: in vivo; conditions: eye drops right eye 3 times every day for 42 days
Description: (§8) P7 days old neonatal New Zealand rabbits, normal grade, and 5 young rabbits per litter were breast-fed with a mother rabbit.
(§9) The experimental young rabbits were randomly divided into 5 groups with 5 rabbits per group.
(§10) 2) Model control group (MC): in the P10 day, the young rabbits were injected subcutaneously with sodium selenite solution (in physiological saline) at a dose of 20 μmol/kg body weight, and after the P15 day, drug-free blank eyes drops were dripped into the right eye 3 times every day for 42 days.
as §10, with “3) Positive” for “2) Model”, “(PC):” for “(MC):”, “Kary Uni eye” for “drug-free blank eyes”, “drops (Santen Pharmaceutical Co., Ltd in Japan)” for “drops”
as §10, with “4) Lanosterol eye drops treatment” for “2) Model control”, “(LT):” for “(MC):”, “lanosterol eye” for “drug-free blank eyes”, “days. […]” for “days.”

[4] = system: ultraviolet-induced New Zealand rabbit cataract model; assay: Slit lamp observation, ultraviolet-induced cataract model; type: in vivo; conditions: ultraviolet model (313 nm UV 24 hours); eye drops right eye 3 times every day for 42 days
Description: as §1, §2, §3, §4, §5, §6

[5] = system: lens glutathione peroxidase (GSH-PX) activity; assay: Lens glutathione peroxidase (GSH-PX) activity assay, sodium selenite-induced cataract model; type: in vivo, New Zealand rabbit; conditions: after 42 days of administration
Description: as §8, §9, §10
as §10, with “3) Positive” for “2) Model”, “(PC):” for “(MC):”, “Kary Uni eye” for “drug-free blank eyes”, “drops (Santen Pharmaceutical Co., Ltd in Japan)” for “drops”
as §10, with “4) Lanosterol eye drops treatment” for “2) Model control”, “(LT):” for “(MC):”, “lanosterol eye” for “drug-free blank eyes”
as §10, with “5) Lanosterol prodrug 026 eye drops treatment” for “2) Model control”, “(026, the compound of formula (I)):” for “(MC):”, “lanosterol prodrug 026 eye” for “drug-free blank eyes”
as §7, with “was” for “were”

[6] = system: sodium selenite-induced neonatal New Zealand rabbit cataract model; assay: Lens transparency test in vitro, sodium selenite-induced cataract model; type: in vivo; conditions: after 42 days of administration, left eye as self-control
Description: as §8, §9, §10
as §10, with “3) Positive” for “2) Model”, “(PC):” for “(MC):”, “Kary Uni eye” for “drug-free blank eyes”, “drops (Santen Pharmaceutical Co., Ltd in Japan)” for “drops”
as §10, with “4) Lanosterol eye drops treatment” for “2) Model control”, “(LT):” for “(MC):”, “lanosterol eye” for “drug-free blank eyes”, “days. […]” for “days.”

[7] = system: ultraviolet-induced New Zealand rabbit cataract model; assay: Lens transparency test in vitro, ultraviolet-induced cataract model; type: in vivo; conditions: after 42 days of administration, left eye as self-control
Description: as §1, §2, §3, §4, §5, §6
2) Lens transparency test in vitro: on the last day, the animal's eyeball was dissected, the lens containing the capsule was completely separated, and the lens was placed on a grid paper (2.12×2.12 mm). The photographs show the sharpness of the grid photographed through the lens.

[8] = Hygroscopicity study by Dynamic Vapor Sorption (DVS); type: physicochemical; conditions: 25° C. and 80% RH
Description: Dynamic Vapor Sorption (DVS)
Detection method: samples (10 mg to 20 mg) were placed in a DVS sample tray for testing.
Equilibrium: dm/dt: 0.01%/min: (Shortest: 10 min, longest: 180 min)
RH (%) gradient for testing: 10%
RH (%) gradient range for testing: 0% to 90% to 0%
The hygroscopicity was evaluated using the following scales:
SMS DVS Advantage Dynamic Vapor Sorption System
10 to 15 mg of the crystal form A of the compound of formula (I) was placed in the DVS sample tray for testing.

[9] = Pre-stability experiment (influencing factors: high temperature, high humidity, light); type: physicochemical; conditions: 60° C. open; relative humidity 92.5% open; light 1 ICH; up to 10 days
Description: The crystal form A of the compound of formula (I) was placed under the following 3 conditions and tested for appearance, XRPD, content and related substances at different time points.
10 mg of the crystal form A of the compound of formula (I) was accurately weighted and placed in a sample bottle, and then spread to form a thin layer. The samples were placed under 60° C., 92.5% RH, the mouth of the bottle was directly wrapped with aluminum foil which was punctured to get some small holes to ensure that the sample can fully contact the ambient air. The samples were placed respectively in a dry box and a glass jar containing saturated potassium nitrate solution. The illuminated sample (open, not covered with aluminum foil) and the illuminated control sample (open, the sample bottle was entirely covered with aluminum foil) were placed in the light box. 2 parts of the sample were weighted at each time point as the formal test sample. In addition, about 5 mg of the crystal form A of the compound of formula (I) was weighted for XRPD testing; the sample bottle was wrapped with aluminum foil which was punctured to get some small holes; the samples were also placed in the corresponding drying box and the glass jar containing saturated potassium nitrate solution. […]

Structure (SMILES)	Effect on lens GSH-PX activity compared with the other treatments [1]	Lens GSH-PX activity vs MC group [1]	Average concentration of the compound of formula (I) in the aqueous humor ([2]; 250 nmol the compound of formula (I) dripped into each eye, analyte prodrug, 0.5 hour)	Average concentration of the compound of formula (I) in the aqueous humor ([2]; 250 nmol the compound of formula (I) dripped into each eye, analyte prodrug, 2 hour)	Average concentration of the compound of formula (I) in the aqueous humor ([2]; 250 nmol the compound of formula (I) dripped into each eye, analyte prodrug, 4 hour)	Average concentration of the compound of formula (I) in the aqueous humor ([2]; 250 nmol the compound of formula (I) dripped into each eye, analyte prodrug, 6 hour)	AUC ([2]; in vivo, 250 nmol the compound of formula (I) dripped into each eye, analyte prodrug, read-out: AUC (exposure amount) of the compound of formula (I) in the aqueous humor)	Conversion into the parent drug lanosterol ([2]; during the infiltration process)	Lanosterol concentration and exposure in the aqueous humor compared with lanosterol eye drops ([2]; eye drops)	Penetration into the aqueous humor ([2]; eye drops)	Cataract symptoms by slit lamp observation, after vs before administration [3]	Cataract symptoms by slit lamp observation, after vs before administration [4]	Effect on lens GSH-PX activity compared with the other treatments [5]	Lens GSH-PX activity vs MC group [5]	Lens transparency in vitro of administered right eye [6]	Lens transparency in vitro of administered right eye [7]	AUC ([2]; aqueous humor, topical, 250 nmol per eye, 250 nmol lanosterol dripped into each eye, read-out: AUC (exposure amount) of lanosterol in the aqueous humor)	Hygroscopic weight gain (ΔW) [8]	Hygroscopicity scale [8]	Crystal form stability (appearance, XRPD, content, related substances) [9]
CC(C)=CCC[C@@H](C)[C@H]1CC[C@@]2(C)C3=C(CC[C@]12C)[C@@]1(C)CC[C@H](OC(=O)c2ccccc2O)C(C)(C)C1CC3 (some centres unmarked) [the compound of formula (I)]	better than that of Kary Uni	capable of increasing the GSH-PX activity of the lens	41.0 nM	33.3 nM	25.5 nM	BQL	0.124 µM·h	capable of converting into the parent drug lanosterol	higher concentration and exposure of lanosterol in the aqueous humor	capable of penetrating into the aqueous humor	cataract symptoms were significantly reduced	cataract symptoms were significantly reduced	better than that of Kary Uni	capable of increasing the GSH-PX activity of the lens	significantly higher than that of the left eye	significantly higher than that of the left eye	–	–	–	–
CC(C)=CCC[C@@H](C)[C@H]1CC[C@@]2(C)C3=C(CC[C@]12C)[C@@]1(C)CC[C@H](O)C(C)(C)[C@@H]1CC3 [Lanosterol]	significantly lower than that of 026 and Kary Uni	no statistical difference compared to the MC group	–	–	–	–	–	–	–	capable of penetrating into the aqueous humor	no evident change	no evident change	significantly lower than that of 026 and Kary Uni	no statistical difference compared to the MC group	no significant change in lens transparency	no significant change in lens transparency	1.78 µM·h	–	–	–
CC(C)=CCC[C@@H](C)[C@H]1CC[C@@]2(C)C3=C(CC[C@]12C)[C@@]1(C)CC[C@H](OC(=O)c2ccccc2O)C(C)(C)C1CC3 (some centres unmarked)	–	–	–	–	–	–	–	–	–	–	–	–	–	–	–	–	–	0.747%	slightly hygroscopic	the crystal form has not changed after the experiment, and its stability is good
